Experimental data: patent publication US20200352947A1, “USE OF SEROTONERGIC DRUGS TO TREAT VIRUS-INDUCED THROMBOCYTOPENIA” (NATIONAL UNIVERSITY OF SINGAPORE, priority 2017, published 2020)

Key:
DENV2-infected mice [1] = test: Platelet aggregation in peripheral blood smears of DENV2-infected WT mice; format: in vivo; conditions: 10^6 pfu DENV2 IP, ketanserin 8 mg/kg IP 1 hour after infection, blood 24 hours post-infection, vs vehicle 1% DMSO
Method: Images depict peripheral blood smears from DENV2-infected mice. Mice were infected via intraperitoneal route (IP) with 10^6 pfu. (A) Mock infected mice. (B) DENV-infected mice treated with vehicle control IP. (C) DENV-infected mice given ketanserin 8 mg/kg IP. Blood was taken via cheek bleed 24 hours post-infection, smeared onto glass slides, stained with eosin and methylene blue and viewed under light microscopy using a 100× magnification lens. Dengue induces platelet aggregation, while administration of ketanserin prevents this. A few individual platelets are indicated by arrows; platelet aggregates are circled by dashed lines. Scale bar=10 μm.
To test whether ketanserin could block platelet aggregation and/or prevent thrombocytopenia, a mouse model of dengue infection was used. WT mice were infected via intraperitoneal route (IP) with 10^6 pfu of DENV2 and, after 1 hour, treated with vehicle (1% DMSO) or ketanserin (8 mg/kg) IP. Blood was taken via cheek bleed 24 hours post-infection, smeared onto glass slides, stained with eosin and methylene blue and viewed under light microscopy using a 100× magnification lens. […] Selected red blood cells (RBC), platelets (arrows) and platelet aggregates (dashed lines) are labeled.

DENV2-infected mice [2] = test: Platelet counts (thrombocytopenia) in DENV2-infected WT mice; format: in vivo; conditions: 10^6 pfu DENV2 IP, 24 hours post-infection, n=5
Method: Platelet counts of DENV2 infected mice. Mice were infected via intraperitoneal route (IP) with 10^6 plaque forming units (pfu) and were given either vehicle (1% DMSO) or ketanserin 8 mg/kg IP. Blood was taken via cheek bleed 24 hours post-infection and platelet counts were measured using an automated hematology analyzer. DENV2 infection induces thrombocytopenia, but ketanserin treatment is able to prevent thrombocytopenia (n=5). Mean values are presented and error bars represent the SEM. P values were determined by Student's unpaired t test; ***P<0.001, ****P<0.0001.
Platelet counts of DENV2 infected mice. Mice were infected IP with 10^6 pfu of DENV2 and were given either vehicle, the 5HT1A antagonist WAY-100135, or either of the 5HT2A antagonists, ketanserin and sarpogrelate. Blood was taken via cheek bleed 24 hours post-infection and platelet counts were measured using an automated hematology analyzer. DENV2 infection induced thrombocytopenia that was able to be prevented through administration of serotonin receptor antagonists (n=5). Mean values are presented and error bars represent the SEM. P values were determined by one-way ANOVA; ***p<0.001, ****P<0.0001.
WT mice were infected via intraperitoneal route (IP) with 10^6 plaque forming units (pfu) of DENV2 and were given either vehicle (1% DMSO) or ketanserin (8 mg/kg) IP. Blood was taken via cheek bleed 24 hours post-infection and platelet counts were measured using an automated hematology analyzer.
One limitation of the experimental protocol in Examples 10 and 11 is that the vehicle used to deliver ketanserin in mice, DMSO, can itself interfere with platelet aggregation [Rosenblum, W. I. & El-Sabban. F. Stroke 13, 35-39 (1982)]. This difference can be observed by comparing the severity of thrombocytopenia in dengue-infected mice between FIGS. 1 and 10. Accordingly, newer serotonin receptor antagonists that are more soluble in saline were tested, to determine whether a similar effect is seen even without the confounding effects of DMSO. Mice were infected IP with 10^6 pfu of DENV2 and were given either vehicle, the 5HT1A antagonist WAY-100135 (3 mg/kg), or one of the 5HT2A antagonists ketanserin (8 mg/kg) or sarpogrelate (3 mg/kg). Blood was taken via cheek bleed 24 hours post-infection and platelet counts were measured using an automated hematology analyzer.

human platelets = test: Platelet activation (CD41/CD62P flow cytometry) in stimulated human whole blood; format: cell-based; conditions: ketanserin 100 nM or 500 nM, 15 min; n=4
Method: (A) Whole blood from healthy human volunteers was isolated and stimulated with DENV2, serotonin, or DENV2+serotonin for 15 min. Cells were then fixed and stained for platelet markers CD41 and CD62P and analyzed by flow cytometry. DENV raised the activation levels of platelets. […] (B) Human whole blood was stimulated with DENV2, mast cells (MCs) or DENV2+MCs in the presence of vehicle or ketanserin (100 nM or 500 nM) for 15 min prior to assessment of platelet activation. […] Mean values are presented and error bars represent the SEM. P values were determined by one-way ANOVA; *P<0.05, ** P<0.01, ***P<0.001, ****P<0.0001, ns: non-significant.
Additionally, products from DENV-stimulated human mast cells promoted platelet activation, dependent on platelet 5HT2A receptor, since this effect was abolished by ketanserin (FIG. 9B). […] Furthermore, ketanserin is effective in reversing DENV-induced human platelet activation.

DENV2 [3] = test: DENV viral load by qRT-PCR in WT mice; format: in vivo
Method: (§1) (A) WT mice were treated with vehicle or ketanserin (8 mg/kg) prior to subcutaneous footpad injection with 2×10^5 pfu of DENV or PBS. At 72 h post-infection, popliteal lymph nodes were isolated for viral quantification by qRT-PCR. […] (B-C) WT mice were infected with DENV2 (1×10^6 pfu, i.p.) and treated daily with either 8 mg/kg of ketanserin or vehicle. […] (C) At 1 day post-infection, the spleen was harvested and DENV2 was quantified by qRT-PCR.
(§2) Since a concern with inhibition of host factors would be the effect on viral replication, the levels of viremia following DENV infection were measured. WT mice were treated with either ketanserin or vehicle prior to a subcutaneous footpad injection. The draining lymph nodes were then harvested to determine if targeting 5HT2A receptors had any influence on viral load. […] Subsequently it was determined whether targeting serotonin would have an effect on viral load in systemic infection. WT mice were treated with either ketanserin or vehicle following DENV systemic infection via intraperitoneal injection. Serum was isolated at days 1 and 3 post-infection and viremia quantified. […] The second model of severe DENV infection, the IFN-α,β, γ-R^−/− (IFNR-KO) mice, were subsequently infected and treated with either ketanserin or vehicle. These mice are known to have higher levels of viremia than WT mice.

DENV2 [4] = test: DENV viral load by qRT-PCR in IFNR-KO mice; format: in vivo; conditions: DENV2 2×10^5 pfu i.p., ketanserin 8 mg/kg daily, 72 h post-infection
Method: as §1, §2

SMILES: O=C(c1ccc(F)cc1)C1CCN(CCn2c(=O)[nH]c3ccccc3c2=O)CC1 [ketanserin, 3-[2-[4-(4-fluorobenzoyl)piperidin-1-yl]ethyl]-1H-quinazoline-2,4-dione]
- DENV-induced platelet aggregation in peripheral blood smears (DENV2-infected mice [1]): prevented
- platelet counts (DENV2-induced thrombocytopenia) (DENV2-infected mice [2]; WT mice, ketanserin 8 mg/kg IP, vehicle 1% DMSO): did not show significantly reduced platelets compared to control
- platelet counts (DENV2-induced thrombocytopenia) (DENV2-infected mice [2]; mice, WAY-100135 3 mg/kg, ketanserin 8 mg/kg or sarpogrelate 3 mg/kg): prevented
- platelet activation in human whole blood stimulated with DENV2+mast cells (human platelets): abolished the significant increase in platelet activation
- viral load in the spleen (DENV2 [3]; DENV2 1×10^6 pfu i.p., ketanserin 8 mg/kg daily, 1 day post-infection): did not affect viral load in the spleen
- serum viremia (DENV genome copy numbers) (DENV2 [3]; DENV2 1×10^6 pfu i.p., ketanserin 8 mg/kg daily, days 1 and 3 post-infection, n=5): no significant difference in serum DENV genome copy numbers at both time points
- viral load in the draining (popliteal) lymph node (DENV2 [3]; ketanserin 8 mg/kg prior to subcutaneous footpad injection of 2×10^5 pfu DENV, 72 h post-infection): did not affect viral load in the draining lymph node
- viral load in serum (DENV2 [4]): no difference in viral load
- viral load in spleen (DENV2 [4]): no difference in viral load
